Measurements reported in ChEMBL document CHEMBL6153137, “Design, Synthesis, and Biological Evaluation of Novel Orally Available Covalent CDK12/13 Dual Inhibitors for the Treatment of Tumors” (J Med Chem, 2025).
Active and inactive are the calls of the source. No cut-off for these calls is given here.

Experiments:
[1] = Toxicity against male Sprague-Dawley rat assessed as effect on hemoglobin level at 10 to 40 mg/kg, po administered once daily via gavage for 28 days and measured on day 29; format: organism-based; conditions: in vivo, 696 h, dose 10-40 mg/kg, time 29 day
[2] = molecular target: T1, Cyclin-dependent kinase 12/13 (Homo sapiens) (UniProt Q14004+Q9NYV4); assay: Inhibition of CDK12/13 in human SUM149PT cells assessed as reduction in ATM gene expression at 500 nM incubated for 8 to 24 hrs by qPCR analysis; format: cell-based; conditions: time lower 8.0 hrs, time upper […]
Cytochrome P450 3A4 = Cytochrome P450 3A4 (Homo sapiens, UniProt P08684); assay: Inhibition of CYP3A4 in human liver microsomes assessed as inhibition of midazolam-1'-hydroxylation incubated for 10 mins in presence of NADPH by LC-MS/MS analysis; format: ADME, Microsome
Sequence of Cytochrome P450 3A4 (P08684 whole entry): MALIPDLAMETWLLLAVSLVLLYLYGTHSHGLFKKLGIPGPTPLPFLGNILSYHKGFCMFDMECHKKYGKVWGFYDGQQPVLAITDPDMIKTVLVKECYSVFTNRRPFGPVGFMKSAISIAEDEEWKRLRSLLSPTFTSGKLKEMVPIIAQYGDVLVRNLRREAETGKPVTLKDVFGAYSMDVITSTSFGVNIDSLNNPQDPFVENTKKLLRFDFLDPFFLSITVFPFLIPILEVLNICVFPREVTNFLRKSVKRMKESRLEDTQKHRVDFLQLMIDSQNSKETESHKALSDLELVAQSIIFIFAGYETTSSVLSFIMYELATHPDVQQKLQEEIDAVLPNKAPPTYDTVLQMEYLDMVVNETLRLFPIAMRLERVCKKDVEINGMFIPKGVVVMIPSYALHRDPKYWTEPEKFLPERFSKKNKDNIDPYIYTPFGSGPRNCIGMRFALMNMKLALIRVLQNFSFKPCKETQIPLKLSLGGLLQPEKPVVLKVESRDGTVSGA

[3] = Toxicity against female Sprague-Dawley rat assessed as body weight loss at 30 mg/kg, po administered once daily via gavage for 28 days and measured twice a week; format: organism-based; conditions: in vivo, 672 h, time 28 day
[4] = AUC (0 to infinity) in Sprague-Dawley rat at 15 mg/kg, po by LC-MS/MS analysis; format: ADME, organism-based; conditions: in vivo
Mus musculus = assay: In vivo inhibition of CDK12/13 in Balb/c mouse xenografted with human SUM149PT cells assessed as reduction in phosphorylation of Ser2 on RNA Pol II at 15 to 30 mg/kg, po administered once daily via gavage and measured at 4 hrs post-last drug dosage by western blot analysis; format: functional, organism-based; conditions: dose 15-30 mg/kg
SUM149PT [5] = assay: Antitumor activity against human SUM149PT cells xenografted in Balb/c mouse assessed as inhibition of tumor growth at 60 mg/kg, po administered once daily via gavage and measured on day 20; format: functional; conditions: 480 h, time 20 day, read-out: TGI
[6] = AUC in Balb/c mouse xenografted with human SUM149PT cells at 30 mg/kg, po administered once daily via gavage; format: ADME, organism-based; conditions: in vivo
[7] = molecular target: Mitogen-activated protein kinase 8 (Homo sapiens) (UniProt P45983); assay: Inhibition of JNK1 (unknown origin) at 5 uM by DiscoverX KinomeScan ScanMAX analysis
Sequence of Mitogen-activated protein kinase 8 (Homo sapiens) (P45983 whole entry): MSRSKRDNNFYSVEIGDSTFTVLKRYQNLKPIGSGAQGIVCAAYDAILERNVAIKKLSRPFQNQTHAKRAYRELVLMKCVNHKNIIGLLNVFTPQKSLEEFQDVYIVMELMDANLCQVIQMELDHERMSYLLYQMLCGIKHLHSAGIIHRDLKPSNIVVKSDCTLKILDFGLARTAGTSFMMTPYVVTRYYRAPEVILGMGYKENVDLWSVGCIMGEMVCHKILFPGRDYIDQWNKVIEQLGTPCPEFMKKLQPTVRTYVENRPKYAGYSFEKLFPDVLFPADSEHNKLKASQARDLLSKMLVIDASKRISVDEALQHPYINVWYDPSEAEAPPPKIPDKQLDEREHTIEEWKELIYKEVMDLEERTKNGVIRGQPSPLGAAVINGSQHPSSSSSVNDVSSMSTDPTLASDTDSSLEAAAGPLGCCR

[8] = molecular target: T1, Cyclin-dependent kinase 12/13 (Homo sapiens); assay: Inhibition of CDK12/13 in human SUM149PT cells assessed as reduction in BRCA1 gene expression at 500 nM incubated for 8 to 24 hrs by qPCR analysis; format: cell-based; conditions: time lower 8.0 hrs, time upper […]
[9] = Half life in Sprague-Dawley rat at 150 mg/kg, po measured for 24 hrs by LC-MS/MS analysis; format: ADME, organism-based; conditions: in vivo
[10] = Toxicity against Sprague-Dawley rat assessed as abnormalities at 5 to 15 mg/kg, po measured for 24 hrs; format: organism-based; conditions: in vivo, dose 5-15 mg/kg
[11] = Cmax in Balb/c mouse xenografted with human SUM149PT cells at 60 mg/kg, po administered once daily via gavage; format: ADME, organism-based; conditions: in vivo
[12] = Toxicity against female Sprague-Dawley rat assessed as effect on AST level in blood at 7.5 to 30 mg/kg, po administered once daily via gavage for 28 days and measured on day 29; format: organism-based; conditions: in vivo, 696 h, dose 7.5-30 mg/kg, time 29 day
SUM149PT [13] = assay: Antitumor activity against human SUM149PT cells xenografted in Balb/c mouse assessed as inhibition of tumor growth at 30 mg/kg, po administered once daily via gavage and measured on day 20; format: functional; conditions: 480 h, time 20 day, read-out: TGI
[14] = Ratio of drug level in tumor to plasma in Balb/c mouse xenografted with human SUM149PT cells at 30 mg/kg, po administered via gavage and measured after 2 hrs; format: ADME, organism-based
[15] = AUC (0 to infinity) in Sprague-Dawley rat at 50 mg/kg, po by LC-MS/MS analysis; format: ADME, organism-based; conditions: in vivo
[16] = Half life in female Sprague-Dawley rat at 7.5 mg/kg, po administered via gavage and measured on day 1; format: ADME, organism-based; conditions: in vivo, time 1 day
[17] = molecular target: CDK9/cyclin T1 (Homo sapiens) (UniProt O60563+P50750); assay: Inhibition of human recombinant N-terminal GST-tagged CDK9/N-terminal GST-tagged and C-terminal 8X His-tagged Cyclin T1 expressed in HEP Sf9 cells using ATP as substrate at 2 uM measured after 60 mins by ADP-Glo reagent based luminescence assay
[18] = AUC in Balb/c mouse xenografted with human MV4-11 cells at 30 mg/kg, po administered once daily via gavage; format: ADME, organism-based; conditions: in vivo
[19] = Toxicity against male Sprague-Dawley rat assessed as hypersalivation at 40 mg/kg, po administered once daily via gavage for 28 days; format: organism-based; conditions: in vivo, 672 h, time 28 day
CDK9/cyclin T1 = CDK9/cyclin T1 (Homo sapiens, UniProt P50750); assay: Inhibition of human recombinant N-terminal GST-tagged CDK9/N-terminal GST-tagged and C-terminal 8X His-tagged Cyclin T1 expressed in HEP Sf9 cells using ATP as substrate measured after 60 mins by ADP-Glo reagent based luminescence assay
Sequence of CDK9/cyclin T1 (O60563 whole entry): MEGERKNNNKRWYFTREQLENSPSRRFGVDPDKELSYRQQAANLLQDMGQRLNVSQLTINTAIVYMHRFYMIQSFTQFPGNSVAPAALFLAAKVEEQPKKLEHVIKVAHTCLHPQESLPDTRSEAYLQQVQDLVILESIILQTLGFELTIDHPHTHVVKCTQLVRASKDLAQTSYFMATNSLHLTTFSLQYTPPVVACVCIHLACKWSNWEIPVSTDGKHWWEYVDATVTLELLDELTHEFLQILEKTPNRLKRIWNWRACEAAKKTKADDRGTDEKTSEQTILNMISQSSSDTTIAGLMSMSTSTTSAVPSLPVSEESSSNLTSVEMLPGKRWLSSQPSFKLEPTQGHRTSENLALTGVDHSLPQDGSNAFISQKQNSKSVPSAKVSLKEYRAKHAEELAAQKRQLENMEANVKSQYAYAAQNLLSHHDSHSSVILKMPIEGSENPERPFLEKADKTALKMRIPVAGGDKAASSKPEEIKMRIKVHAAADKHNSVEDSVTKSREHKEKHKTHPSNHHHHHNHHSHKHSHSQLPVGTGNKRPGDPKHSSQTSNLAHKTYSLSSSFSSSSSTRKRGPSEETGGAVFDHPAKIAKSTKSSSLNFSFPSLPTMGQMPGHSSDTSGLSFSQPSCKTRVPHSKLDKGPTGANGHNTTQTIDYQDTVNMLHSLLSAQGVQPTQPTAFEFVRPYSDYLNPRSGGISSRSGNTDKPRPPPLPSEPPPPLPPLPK
Sequence of CDK9/cyclin T1 (P50750 whole entry): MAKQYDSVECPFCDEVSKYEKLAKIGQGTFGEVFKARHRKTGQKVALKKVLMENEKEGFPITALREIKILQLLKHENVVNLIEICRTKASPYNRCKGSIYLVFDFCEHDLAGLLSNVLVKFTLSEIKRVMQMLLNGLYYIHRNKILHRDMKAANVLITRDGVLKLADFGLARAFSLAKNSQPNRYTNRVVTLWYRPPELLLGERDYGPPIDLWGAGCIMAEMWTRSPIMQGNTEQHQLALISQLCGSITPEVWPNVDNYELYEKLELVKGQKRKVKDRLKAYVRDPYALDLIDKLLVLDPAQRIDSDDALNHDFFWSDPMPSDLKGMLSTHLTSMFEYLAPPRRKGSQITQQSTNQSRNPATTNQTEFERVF

[20] = Toxicity against male Sprague-Dawley rat assessed as effect on creatinine level in blood at 10 to 40 mg/kg, po administered once daily via gavage for 28 days and measured on day 29; format: organism-based; conditions: in vivo, 696 h, dose 10-40 mg/kg, time 29 day
[21] = AUC(0 to t) in female Sprague-Dawley rat at 7.5 mg/kg, po administered via gavage and measured on day 1; format: ADME, organism-based; conditions: in vivo, 24 h, time 1 day
[22] = Ratio of drug level in tumor to plasma in Balb/c mouse xenografted with human MV4-11 cells at 30 mg/kg, po administered via gavage and measured after 2 hrs; format: ADME, organism-based
[23] = Toxicity against female Sprague-Dawley rat assessed as decrease in lymphocytes content at 7.5 to 30 mg/kg, po administered once daily via gavage for 28 days and measured on day 29; format: organism-based; conditions: in vivo, 696 h, dose 7.5-30 mg/kg, time 29 day
[24] = Toxicity against Balb/c mouse xenografted with human MV4-11 cells assessed as effect on body weight at 15 to 30 mg/kg, po administered once daily via gavage and measured every 3 days for 3 weeks; format: organism-based; conditions: in vivo, 504 h, dose 15-30 mg/kg
[25] = Toxicity against male Sprague-Dawley rat assessed as effect on blood urea nitrogen level at 10 to 40 mg/kg, po administered once daily via gavage for 28 days and measured on day 29; format: organism-based; conditions: in vivo, 696 h, dose 10-40 mg/kg, time 29 day
[26] = Cmax in male Sprague-Dawley rat at 10 mg/kg, po administered via gavage and measured on day 1; format: ADME, organism-based; conditions: in vivo, time 1 day
[27] = Cmax in Sprague-Dawley rat at 5 mg/kg, po measured for 24 hrs by LC-MS/MS analysis; format: ADME, organism-based; conditions: in vivo
[28] = AUC in Balb/c mouse xenografted with human SUM149PT cells at 60 mg/kg, po administered once daily via gavage; format: ADME, organism-based; conditions: in vivo
[29] = molecular target: CDK6/cyclin D1 (Homo sapiens) (UniProt P24385+Q00534); assay: Inhibition of human recombinant N-terminal GST-tagged CDK6/N-terminal GST-tagged and C-terminal 6X His-tagged Cyclin D1 expressed in HEP Sf9 cells using ATP as substrate at 2 uM measured after 60 mins by ADP-Glo reagent based luminescence analysis
[30] = Half-life in Balb/c mouse xenografted with human MV4-11 cells at 30 mg/kg, po administered once daily via gavage; format: ADME, organism-based; conditions: in vivo

## C=CC(=O)N1CCc2c(ncnc2N2CC[C@@H](Nc3ncc(Cl)c(OC)n3)C2)C1
[1]
  Activity: Non-toxic
[2]
  inhibition: Active
Cytochrome P450 3A4
  IC50: > 50000 nM
[3]
  Activity: Toxic
[4]
  AUC(0-inf): 2280 ng·h/mL
Mus musculus
  inhibition: Active
SUM149PT [5]
  inhibition in vivo at 60 mg/kg: 114%
[6]
  AUC: 2690 ng·h/mL
[7]
  inhibition: Active
[8]
  inhibition: Active
[9]
  half-life: 21.2 h
[10]
  Activity: Non-toxic
[11]
  Cmax: 3300 ng/mL
[12]
  Activity: Non-toxic
SUM149PT [13]
  inhibition in vivo at 30 mg/kg: 101%
[14]
  Kp at 2 h: 0.38
[15]
  AUC(0-inf): 6690 ng·h/mL
[16]
  half-life: 2 h
[17]
  inhibition: 75%
[18]
  AUC: 4190 ng·h/mL
[19]
  Activity: Toxic
CDK9/cyclin T1
  IC50: 641 nM
[20]
  Activity: Non-toxic
[21]
  AUCt: 1640 ng·h/mL
[22]
  Kp at 2 h: 0.46
[23]
  Activity: Toxic
[24]
  Activity: Non-toxic
[25]
  Activity: Non-toxic
[26]
  Cmax: 460 ng/mL
[27]
  Cmax: 808 ng/mL
[28]
  AUC: 4620 ng·h/mL
[29]
  inhibition: 56%
[30]
  half-life: 1.17 h
